The source of these data is patent US8546377B2 (AbbVie Inc., priority 2009, dated 2013).

One assay addresses T1, 5HT2B receptors (Homo sapiens, UniProt P41595).
T1 construct: expressed in transfected cells; host or cells: CHO-K1 cells
Briefly: Human 5-HT2B functional assay in CHO-K1 cells (calcium flux, FLIPR). The format is cell-based. Summed up:
(§1)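 EC50 came from a 4-parameter logistic fit, with Emax expressed relative to serotonin, of intracellular Ca2+ rises read on FLIPR at 480/530 nm, 25° C, over 3 min. Compounds ran from 10 μM in six 1:10 steps (0.2% DMSO) on serum-starved CHO-K1 transfectants pre-loaded 60 min with Ca4 dye and probenecid.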
For orientation: A change in cytosolic calcium serves as a functional read-out for many receptors and channels.

A further assay concerns the target T2, 5HT2C receptors (Homo sapiens, UniProt P28335).
T2 sequence (P28335 33-458): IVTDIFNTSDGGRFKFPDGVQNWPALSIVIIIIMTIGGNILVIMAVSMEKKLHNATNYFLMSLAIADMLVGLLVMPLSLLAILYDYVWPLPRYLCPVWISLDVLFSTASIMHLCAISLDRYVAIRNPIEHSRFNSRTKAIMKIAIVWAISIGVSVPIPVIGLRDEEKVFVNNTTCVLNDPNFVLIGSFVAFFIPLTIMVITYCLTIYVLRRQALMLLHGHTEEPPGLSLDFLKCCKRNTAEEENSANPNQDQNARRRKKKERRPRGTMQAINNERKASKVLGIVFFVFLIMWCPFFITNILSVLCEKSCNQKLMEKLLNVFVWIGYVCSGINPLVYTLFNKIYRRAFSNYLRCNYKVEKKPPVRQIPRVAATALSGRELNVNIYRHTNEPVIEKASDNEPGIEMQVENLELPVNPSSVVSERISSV
The assay can be described thus: Human 5-HT2C functional assay in CHO-K1 cells (calcium flux, FLIPR). The format is cell-based. Set-up: expressed in transfected cells; host or cells: CHO-K1 cells. Particulars: for Emax: percentage relative to the effect of serotonin. The method in brief:
as §1

[1] abbreviates: CHO-K1 cells over-expressing 5HT2B, calcium flux, read-out: EC50 (μM), 5-HT2B Agonist Activity.
Where [2] appears, read: CHO-K1 cells over-expressing 5HT2C, calcium flux, read-out: EC50 (μM), 5-HT2c Agonist Activity.
Where [3] appears, read: CHO-K1 cells, read-out: Emax (%), 5-HT2c Agonist Activity.
Where [4] appears, read: CHO-K1, read-out: Emax (%), 5-HT2c Agonist Activity, CHO-K1 cells.
[5] abbreviates: CHO-K1 cells, percentage relative to the effect of serotonin, read-out: Emax (%), 5-HT2B Agonist Activity.
The mark [6] stands for this setting: CHO-K1, read-out: Emax (%), 5-HT2B Agonist Activity.

Like-named read-outs stand apart in the source and are kept apart here.

T1 sequence (P41595 whole entry): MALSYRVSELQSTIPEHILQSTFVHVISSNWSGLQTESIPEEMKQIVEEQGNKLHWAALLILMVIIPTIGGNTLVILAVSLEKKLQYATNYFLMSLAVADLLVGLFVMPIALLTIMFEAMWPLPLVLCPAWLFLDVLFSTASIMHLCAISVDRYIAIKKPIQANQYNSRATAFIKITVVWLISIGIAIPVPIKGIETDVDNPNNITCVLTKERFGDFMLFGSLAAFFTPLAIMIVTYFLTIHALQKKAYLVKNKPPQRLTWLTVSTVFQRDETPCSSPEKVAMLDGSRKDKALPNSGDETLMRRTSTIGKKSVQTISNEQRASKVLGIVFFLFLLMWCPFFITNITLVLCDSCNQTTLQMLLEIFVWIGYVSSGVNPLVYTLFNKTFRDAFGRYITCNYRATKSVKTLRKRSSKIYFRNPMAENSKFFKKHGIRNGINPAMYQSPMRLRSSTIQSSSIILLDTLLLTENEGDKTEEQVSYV

For `O=C1CC2CNCCN2c2cc(-c3ccccc3F)ccc2N1` (centres unmarked) [Example 70, 10-(2-fluorophenyl)-1,2,3,4,4a,5-hexahydropyrazino[1,2-a][1,5]benzodiazepin-6(7H)-one], the EC50 at 5HT2B receptors (setting [1]) was greater than 10 µM; on 5HT2C receptors (setting [2]), 0.06 µM. The Emax on 5HT2C receptors (setting [3]) was greater than 120%.

Take `O=C1C[C@H]2CNCCN2c2cccc(Cl)c2N1` [Example 148, (4aS)-8-chloro-1,2,3,4,4a,5-hexahydropyrazino[1,2-a][1,5]benzodiazepin-6(7H)-one]: the EC50 at 5HT2B receptors was greater than 10 µM; at 5HT2C receptors, 0.007 µM. For the same compound, on 5HT2C receptors (setting [4]), the maximal effect (Emax) is greater than 120%.

`COc1cccc(-c2ccc3c(c2)N2CCNC[C@@H]2CCO3)c1` [Example 193, (4aS)-10-(3-methoxyphenyl)-2,3,4,4a,5,6-hexahydro-1H-pyrazino[2,1-d][1,5]benzoxazepine]: the values for the half-maximal effective concentration (EC50) at 5HT2B receptors (setting [1]) and at 5HT2C receptors (setting [2]) were 1 µM and 0.008 µM, respectively. Also, the Emax at 5HT2B receptors (setting [5]) was 25%; at 5HT2C receptors (setting [3]), greater than 120%.

In the case of `O=C1CC2CNCCN2c2cc(COc3ccccc3F)ccc2N1` (centres unmarked) [Example 113, 10-[(2-fluorophenoxy)methyl]-1,2,3,4,4a,5-hexahydropyrazino[1,2-a][1,5]-benzodiazepin-6(7H)-one], the values for the EC50 on 5HT2B receptors (setting [1]) and at 5HT2C receptors (setting [2]) were 0.2 µM and 0.05 µM, respectively. The maximal effect (Emax) was 50% at 5HT2B receptors (setting [5]) and greater than 120% at 5HT2C receptors (setting [3]).

Take `O=C1CC2CNCCN2c2cc(-c3cccc(-n4cccn4)c3)ccc2N1` (centres unmarked) [Example 73, 10-[3-(1H-pyrazol-1-yl)phenyl]-1,2,3,4,4a,5-hexahydropyrazino[1,2-a][1,5]benzodiazepin-6(7H)-one]: the results for the EC50 at 5HT2B receptors (setting [1]) and on 5HT2C receptors (setting [2]) were greater than 10 µM and 0.03 µM, respectively. In addition, the maximal response (Emax) on 5HT2C receptors (setting [3]) worked out at 110%.

As to `Clc1cc2c(cc1Cl)N1CCNC[C@@H]1CCO2` [Example 214, (4aS)-9,10-dichloro-2,3,4,4a,5,6-hexahydro-1H-pyrazino[2,1-d][1,5]benzoxazepine], the EC50 worked out at 0.03 µM on 5HT2B receptors and 0.002 µM at 5HT2C receptors. Also, the maximum response (Emax) at 5HT2B receptors (setting [6]) was 60%; on 5HT2C receptors (setting [4]) it was greater than 120%.

Regarding `C[C@@H](Oc1ccc2c(c1)N1CCNC[C@@H]1CC(=O)N2)c1cc(F)ccc1F` [Example 178, (4aS)-10-[(1R)-1-(2,5-difluorophenyl)ethoxy]-1,2,3,4,4a,5-hexahydropyrazino[1,2-a][1,5]benzodiazepin-6(7H)-one], the EC50 on 5HT2B receptors (setting [1]) worked out at 0.04 µM; on 5HT2C receptors (setting [2]), 0.001 µM. Moreover, the Emax at 5HT2B receptors (setting [5]) amounted to 45%; at 5HT2C receptors (setting [3]), 100%.

As to `O=C1C[C@H]2CNCCN2c2cc(OCCc3cccc(F)c3)ccc2N1` [Example 164, (4aS)-10-[2-(3-fluorophenyl)ethoxy]-1,2,3,4,4a,5-hexahydropyrazino[1,2-a][1,5]benzodiazepin-6(7H)-one], the 50% effective concentration (EC50) at 5HT2B receptors (setting [1]) is greater than 10 µM; on 5HT2C receptors (setting [2]), 0.007 µM. Further, the Emax at 5HT2C receptors (setting [3]) is greater than 120%.

With `O=C1CC2CNCCN2c2cc(CCc3cc(F)cc(F)c3)ccc2N1` (centres unmarked) [Example 147, 10-[2-(3,5-difluorophenyl)ethyl]-1,2,3,4,4a,5-hexahydropyrazino[1,2-a][1,5]benzodiazepin-6(7H)-one], the concentration for a half-maximal effect (EC50) at 5HT2B receptors (setting [1]) is greater than 10 µM; on 5HT2C receptors (setting [2]), 0.01 µM. The Emax on 5HT2C receptors (setting [3]) was greater than 120%.

In the case of `O=C1CC2CNCCN2c2cc(OCc3ccccc3)ccc2N1` (centres unmarked) [Example 149, 10-(benzyloxy)-1,2,3,4,4a,5-hexahydropyrazino[1,2-a][1,5]benzodiazepin-6(7H)-one], the concentration giving a half-maximal response (EC50) came to 1 µM on 5HT2B receptors (setting [1]) and 0.02 µM on 5HT2C receptors (setting [2]). For the same compound, the maximal effect (Emax) on 5HT2B receptors (setting [5]) is 30%; on 5HT2C receptors (setting [3]), greater than 120%.

Consider `Cc1ccc2c(c1)N1CCNC[C@@H]1CCO2` [Example 137, (4aS)-10-methyl-2,3,4,4a,5,6-hexahydro-1H-pyrazino[2,1-d][1,5]benzoxazepine], for which the EC50 is 0.05 µM on 5HT2B receptors and 0.002 µM at 5HT2C receptors. The maximal effect (Emax) at 5HT2B receptors (setting [6]) is 60%; at 5HT2C receptors (setting [4]), greater than 120%.

Regarding `O=C1CC2CNCCN2c2cc(CCc3ccccc3C(F)(F)F)ccc2N1` (centres unmarked) [Example 146, 10-{2-[2-(trifluoromethyl)phenyl]ethyl}-1,2,3,4,4a,5-hexahydropyrazino[1,2-a][1,5]benzodiazepin-6(7H)-one], the EC50 at 5HT2B receptors (setting [1]) was greater than 10 µM; on 5HT2C receptors (setting [2]), 0.005 µM. Also, the maximal effect (Emax) at 5HT2C receptors (setting [3]) was greater than 120%.

With `CN1CCN2c3cc(Cl)ccc3NC(=O)C[C@H]2C1` [Example 84, (4aS)-10-chloro-3-methyl-1,2,3,4,4a,5-hexahydropyrazino[1,2-a][1,5]benzodiazepin-6(7H)-one], the concentration for a half-maximal effect (EC50) at 5HT2B receptors is greater than 10 µM; at 5HT2C receptors, 0.067 µM. On 5HT2C receptors (setting [4]), the maximal effect (Emax) came out at 90%.

As to `CCC(Oc1ccc2c(c1)N1CCNC[C@@H]1CC(=O)N2)c1ccccc1` (stereo partly drawn) [Example 177, (4aS)-10-(1-phenylpropoxy)-1,2,3,4,4a,5-hexahydropyrazino[1,2-a][1,5]benzodiazepin-6(7H)-one], the 50% effective concentration (EC50) at 5HT2B receptors (setting [1]) is greater than 10 µM; at 5HT2C receptors (setting [2]), 0.06 µM. Moreover, on 5HT2C receptors (setting [3]), the maximal response (Emax) came out at 110%.

On to `O=C1C[C@H]2CNCCN2c2cc(OCCc3ccccc3F)ccc2N1` [Example 118, (4aS)-10-[2-(2-fluorophenyl)ethoxy]-1,2,3,4,4a,5-hexahydropyrazino[1,2-a][1,5]benzodiazepin-6(7H)-one], for which the EC50 on 5HT2B receptors (setting [1]) was greater than 10 µM; at 5HT2C receptors (setting [2]), 0.009 µM. The maximal response (Emax) at 5HT2C receptors (setting [3]) was greater than 120%.

In the case of `c1ccc(-c2ccc3c(c2)N2CCNC[C@@H]2CCO3)cc1` [Example 187, (4aS)-10-phenyl-2,3,4,4a,5,6-hexahydro-1H-pyrazino[2,1-d][1,5]benzoxazepine], the EC50 on 5HT2B receptors (setting [1]) is 6 µM; at 5HT2C receptors (setting [2]), 0.03 µM. Further, the Emax at 5HT2B receptors (setting [5]) is 10%; on 5HT2C receptors (setting [3]), greater than 120%.

As for `C[C@H]1C[C@H]2CNCCN2c2ccccc2O1` (single isomer, unassigned) [Example 253], the half-maximal effective concentration (EC50) was greater than 10 µM on 5HT2B receptors and 0.09 µM at 5HT2C receptors. For the same compound, the Emax on 5HT2C receptors (setting [4]) turned out to be 100%.

As to `CN1CCN2c3cc(-c4cccc(S(C)(=O)=O)c4)ccc3OCC[C@H]2C1` [Example 221, (4aS)-3-methyl-10-[3-(methylsulfonyl)phenyl]-2,3,4,4a,5,6-hexahydro-1H-pyrazino[2,1-d][1,5]benzoxazepine], the values for the EC50 on 5HT2B receptors (setting [1]) and at 5HT2C receptors (setting [2]) were greater than 10 µM and 0.1 µM, respectively. The Emax at 5HT2C receptors (setting [3]) worked out at 50%.

`O=C1CC2CNCCN2c2cc(/C=C/c3cc(F)cc(F)c3)ccc2N1` (centres unmarked) [Example 143, 10-[(E)-2-(3,5-difluorophenyl)vinyl]-1,2,3,4,4a,5-hexahydropyrazino[1,2-a][1,5]benzodiazepin-6(7H)-one]: the concentration giving a half-maximal response (EC50) on 5HT2B receptors (setting [1]) came out at 1 µM; on 5HT2C receptors (setting [2]) it was 0.02 µM. In addition, the maximal effect (Emax) at 5HT2B receptors (setting [5]) was 60%; at 5HT2C receptors (setting [3]), greater than 120%.

`C[C@@H](Cc1ccccc1)Oc1ccc2c(c1)N1CCNC[C@H]1CC(=O)N2` [Example 167, (4aR)-10-{[(2S)-1-phenylpropan-2-yl]oxy}-1,2,3,4,4a,5-hexahydropyrazino[1,2-a][1,5]benzodiazepin-6(7H)-one]: the EC50 at 5HT2B receptors (setting [1]) was greater than 10 µM; at 5HT2C receptors (setting [2]), 1 µM. The maximum response (Emax) at 5HT2C receptors (setting [3]) was determined as 110%.

In the case of `O=C1C[C@H]2CNCCN2c2cc(OCCc3cccc(Cl)c3)ccc2N1` [Example 175, (4aS)-10-[2-(3-chlorophenyl)ethoxy]-1,2,3,4,4a,5-hexahydropyrazino[1,2-a][1,5]benzodiazepin-6(7H)-one], the EC50 at 5HT2B receptors (setting [1]) was 0.5 µM; on 5HT2C receptors (setting [2]) it was 0.001 µM. The maximal effect (Emax) on 5HT2B receptors (setting [5]) is 20%; at 5HT2C receptors (setting [3]), greater than 120%.

In the case of `O=C1C[C@H]2CNCCN2c2cc(-c3ccccc3F)ccc2N1` [Example 116, (4aS)-10-(2-fluorophenyl)-1,2,3,4,4a,5-hexahydropyrazino[1,2-a][1,5]benzodiazepin-6(7H)-one], the EC50 at 5HT2B receptors (setting [1]) is 0.05 µM; at 5HT2C receptors (setting [2]) it was 0.008 µM. For the same compound, the maximal response (Emax) at 5HT2B receptors (setting [5]) was 30%; on 5HT2C receptors (setting [3]), greater than 120%.

On to `c1ccc(CCc2ccc3c(c2)N2CCNC[C@@H]2CCO3)cc1` [Example 212, (4aS)-10-(2-phenylethyl)-2,3,4,4a,5,6-hexahydro-1H-pyrazino[2,1-d][1,5]benzoxazepine], for which the EC50 was 0.4 µM on 5HT2B receptors (setting [1]) and 0.007 µM on 5HT2C receptors (setting [2]). Further, the maximal effect (Emax) turned out to be 45% on 5HT2B receptors (setting [5]) and 80% on 5HT2C receptors (setting [3]).

In the case of `CC(C)Oc1cccc(-c2ccc3c(c2)N2CCNCC2CC(=O)N3)c1` (centres unmarked) [Example 94, 10-(3-isopropoxyphenyl)-1,2,3,4,4a,5-hexahydropyrazino[1,2-a][1,5]benzodiazepin-6(7H)-one], the EC50 at 5HT2B receptors (setting [1]) was greater than 10 µM; at 5HT2C receptors (setting [2]), 0.008 µM. Also, the Emax at 5HT2C receptors (setting [3]) is greater than 120%.

As to `Cc1cccc(-c2ccc3c(c2)N2CCNCC2CC(=O)N3)c1` (centres unmarked) [Example 89, 10-(3-methylphenyl)-1,2,3,4,4a,5-hexahydropyrazino[1,2-a][1,5]benzodiazepin-6(7H)-one], the EC50 is greater than 10 µM at 5HT2B receptors (setting [1]) and 0.07 µM on 5HT2C receptors (setting [2]). In addition, the maximum response (Emax) at 5HT2C receptors (setting [3]) was greater than 120%.

One may read the EC50 as the concentration giving half of the maximal effect. By Emax is commonly meant the size of the effect at its maximum, as opposed to the concentration needed.
